The text below walks through data of patent US6921757B2, “Organic compounds” (Novartis AG, priority 2000, dated 2005).

Like-named read-outs stand apart in the source and are kept apart here.

The test system of data set [1] is TNF-alpha synthesis and release from the human macrophage cell line U937. Put plainly: Inhibition of TNF-alpha synthesis and release from the human macrophage cell line U937. The data set is classed as cell-based. From the text: Accordingly, the invention also provides a compound of formula I for use as a pharmaceutical. […] Methods (1997) 202:49-57; Renzi et al, Am. Rev. Respir. Dis. (1993) 148:932-939; Tsuyuki et al., J. Clin. Invest. (1995) 96:2924-2931; and Cemadas et al (1999) Am. J. Respir. Cell Mol. Biol. 20:1-8.

The test system of another data set is lung eosinophilia. Description: Inhibition of lung eosinophilia in ovalbumin-sensitised Brown Norway rats. The following applies: 3 mg/kg intratracheally as dry powder lactose blend, 24 h before ovalbumin aerosol; lung lavage 24 h after challenge. The data set is classed as in vivo. Here is the method:
In vivo anti-inflammatory activity may be assessed by inhibition of lung eosinophilia in rats using a modification of the method of Szarka et al op cit. Male Brown Norway rats (approximately 200 g) are sensitised on day 1 with an intraperitonial injection of 0.5 ml of a mixture of ovalbumin (0.02 mg/ml) and aluminium hydroxide (20 mg/ml), followed by Acellulare pertussis adsorbat vaccine (0.2 ml of a 1:4 dilution with 0.9% saline). The procedure is repeated on day 15 and day 21. […] The lungs are removed and after lavage with Hank's solution (balanced salt solution, 100 ml; EDTA 100 mM, 100 ml; HPES 1M, 10 ml, water 1000 ml), eosinophil numbers in the recovered solution are quantified directly using a Corbas Helios 5Diff apparatus (Hoffman-LaRoche).

Data set [2] is described as follows: Systemic side effects: reduction in thymus weight on chronic administration to rats. The data set is classed as in vivo, Sprague-Dawley rats. Here is the method: Systemic side effects may be assessed by reduction in thymus weight on chronic administration to rats. Male Sprague-Dawley rats (approximately 250 g) are treated once daily for 4 days with the test compound administered at a dose of 1 mg/kg either orally as a hydroxypropyl cellulose suspension or intratracheally under isoflurane anaesthesia as a dry powder lactose blend. On day 5 the rats are sacrificed, autopsy is performed and the weight of the thymus is determined.

Setting [3] is: Homo sapiens, U-937, read-out: IC50 inhibition of TNF-alpha synthesis and release.

In general, IC50 refers to the midpoint of a concentration-inhibition curve. Turning to `COC(=O)[C@@]1(OC(=O)c2sccc2C)[C@H](C)CC2C3C[C@H](F)C4=CC(=O)C=C[C@]4(C)[C@@]3(Cl)[C@@H](O)C[C@@]21C` (stereo partly drawn) [Example 26, 3-methylthiophene-2-carboxylic acid (6S,9R,10S,11S,13S,16R,17R)-9-chloro-6-fluoro-11-hydroxy-17-methoxycarbonyl-10,13,16-trimethyl-3-oxo-6,7,8,9,10,11,12,13,14,15,16,17-dodecahydro-3H-cyclopenta[a]phenanthren-17-yl ester], the IC50 in data set [1] (setting [3]) came to 0.024 nM. In addition, in the data set with lung eosinophilia, the “reduction in eosinophil count compared to vehicle control” value (“reduction in eosinophil count” for short) came to 63%.

As for `COC(=O)[C@@]1(OC(=O)c2cnc(C)cn2)[C@H](C)CC2C3C[C@H](F)C4=CC(=O)C=C[C@]4(C)[C@@]3(Cl)[C@@H](O)C[C@@]21C` (some centres unmarked) [Example 99], the half-maximal inhibitory concentration (IC50) in data set [1] (U937 human macrophage cell line, read-out: IC50 inhibition of TNF-alpha synthesis and release) is 0.106 nM. The “reduction in eosinophil count” value in the data set with lung eosinophilia was 48%. In addition, in data set [2] (1 mg/kg intratracheally once daily for 4 days, dry powder lactose blend), the “reduction in thymus weight compared to vehicle control when dosed intratracheally” value is 70%. In addition, the “reduction in thymus weight compared to vehicle control when dosed orally” value in data set [2] (1 mg/kg orally once daily for 4 days, hydroxypropyl cellulose suspension) was 0%.

With `COC(=O)[C@@]1(OC(=O)C2CC2)[C@@H](C)CC2C3C[C@H](F)C4=CC(=O)C=C[C@]4(C)[C@@]3(Cl)[C@@H](O)C[C@@]21C` (stereo partly drawn) [Example 34, (6S,9R,10S,11S,13S,16S,17R)-9-chloro-17-cyclopropanecarbonyloxy-6-fluoro-11-hydroxy-10,13,16-trimethyl-3-oxo-6,7,8,9,10,11,12,13,14,15,16,17-dodecahydro-3H-cyclopenta[a]phenanthrene-17-carboxylic acid methyl ester], the IC50 in data set [1] (setting [3]) came to 0.1 nM. Besides, the “reduction in eosinophil count” value in the data set with lung eosinophilia was determined as 90%.
